From article PMC9896555, “Cyclic Acetals as Novel Long-Lasting Mosquito Repellents” (Journal of Agricultural and Food Chemistry, 2023)

Columns and labels:
Aedes albopictus [1] = experiment: Protection time at 0.17 mg/cm2, human-bait technique; assay type: in vivo; details: for Average PT >95% (% coefficient of variation) / Estimated 100% PT (complete protection time, mean±SE): at the dose of 0.17mg/cm2; for Estimated 100% PT (complete protection time, mean±SE): Kaplan–Meier estimate
Experimental: To evaluate the protection time of derivatives, the PE % was measured with 100 μL of a 5% ethanol solution, corresponding to 0.17 mg/cm^2 of exposed skin, under the same laboratory conditions. Mosquito-exposed skin was treated with 100 μL of ethanol, as the negative hand control. For each volunteer (up to 8), the test was performed every hour, up to 8 h from the application. The protection time of DEET and Icaridin was measured under the same conditions. Since these trials were run in parallel with those aimed to profile the cytotoxicity of the compounds (paragraph 2.6), we interrupted the experiments for those compounds showing to have higher cytotoxicity than Icaridin and DEET as soon as the results were available. For this reason, the number of volunteers differs among the compounds.
The average time until protection which was higher than 95% protection time was considered for each compound. Moreover, for the compounds tested on at least three volunteers, the complete (100%) protection time was also estimated (SPSS 28.01.0) using the Kaplan–Meier survivor function procedure.[22]

Aedes albopictus [2] = experiment: Effective dose / protection efficacy, human-bait technique; assay type: in vivo; details: for Protection efficacy (dose to obtain complete protection (100%) from bite attempts): applied on skin of volunteers, 3 min exposure
Experimental: The repellence of DEET, Icaridin (both supplied by Istituto Biochimico VEBI s.r.l.), acetals, and the synthesized hydroxyacetals was evaluated againstAedes albopictususing the human-bait technique (to simulate the condition of human skin on which repellents will be applied).[22]A. albopictuswas reared and tested at 26 ± 2 °C, ≥60 ± 10% relative humidity (RH), and at 14:10 h light/dark photoperiod, within Plexiglas cylindrical laboratory cages (35 cm diameter, 60 cm length) with one end closed by a net. During the tests, cages contained ≈150 nulliparous, 4–7 day-old, nonblood-fed females. For each compound to be tested, up to six volunteers participated in the trial.
The study was approved by the Regional Ethics Committee for Clinical Trials of Tuscany Region with the registered number 20383. Volunteers agreed to take part in the experiments following informed consent; only volunteers non-allergic to mosquito bites participated in the trials. On the day of the bioassay, they had no contact with lotions, perfumes, oils, or perfumed soaps. They wore latex surgical gloves, in which a dorsal square area of 30 cm^2 was cut open. Mosquito-exposed skin was treated with 50 μL of ethanol, as the negative hand control. The other hand was treated with 50 μL of the tested compounds in ethanol solution (dosages corresponding to 0.081, 0.17, 0.33, 0.5, 0.83, 1.7, 8.3, 16.7, and 83.3 μg/cm^2). Both hands were presented in the same test cage. The number of probing mosquitoes in a 3 min exposure period was recorded. During each test, the control and the treated hand were presented interchanged to verify the mosquitoes’ readiness to bite. Trials were considered valid only if at least 30 mosquitoes performed probing behavior on the control hand before each repellent dosage was tested. The protection efficacy (PE %) obtained from all replicates was calculated, according to the WHO guidelines[31] using this formula [drawing 1]
To evaluate the protection efficacy, volunteers applied increasing doses of the compounds to the skin on the back of their hands (30 cm^2, while the rest was covered with a rubber glove) and counted the number of mosquitoes attempting to bite; the solvent only was used on the control hand. The protection (percentage of repelled mosquitoes) was calculated as reported in the Material and Methods section.

Structure (SMILES)	Protection time PE% (Aedes albopictus [1]; 0.17mg/cm2, 0 min) [%]	Protection time PE% (Aedes albopictus [1]; 0.17mg/cm2, 1 h) [%]	Protection time PE% (Aedes albopictus [1]; 0.17mg/cm2, 2 h) [%]	Protection time PE% (Aedes albopictus [1]; 0.17mg/cm2, 3 h) [%]	Protection time PE% (Aedes albopictus [1]; 0.17mg/cm2, 4 h) [%]	Protection time PE% (Aedes albopictus [1]; 0.17mg/cm2, 5 h) [%]	Protection time PE% (Aedes albopictus [1]; 0.17mg/cm2, 6 h) [%]	Protection time PE% (Aedes albopictus [1]; 0.17mg/cm2, 7 h) [%]	Protection time PE% (Aedes albopictus [1]; 0.17mg/cm2, 8 h) [%]	Average PT >95% (% coefficient of variation) (Aedes albopictus [1])	Estimated 100% PT (complete protection time, mean±SE) (Aedes albopictus [1]) [min]	also measured
CC(C)=CCCC1(C)OCC(CO)O1 (mixture of isomers) [8a]	100	100	100	100	100	99.39	100	97.44	84.95			
CCCCCCCC1OCC(CO)O1 (mixture of isomers) [9a]	100	99.77	99.42	100	100	99.61	95.75	95.88	94.12	420 (4.5) min	307 ± 53	Protection efficacy PE% (Aedes albopictus [2]; 0.081 µg/cm2): 0%; Protection efficacy PE% (Aedes albopictus [2]; 0.17 µg/cm2): 33.33%; Protection efficacy PE% (Aedes albopictus [2]; 0.33 µg/cm2): 72.85%; Protection efficacy PE% (Aedes albopictus [2]; 0.5 µg/cm2): 74.69%; Protection efficacy PE% (Aedes albopictus [2]; 0.83 µg/cm2): 82.72%; Protection efficacy PE% (Aedes albopictus [2]; 1.7 µg/cm2): 90.12%; Protection efficacy PE% (Aedes albopictus [2]; 8.3 µg/cm2): 100%; Protection efficacy PE% (Aedes albopictus [2]; 16.7 µg/cm2): 100%; Protection efficacy PE% (Aedes albopictus [2]; 83.3 µg/cm2): 100%; 100% PE (Aedes albopictus [2]; Table S1): 8.3 µg/cm2; Protection efficacy (dose to obtain complete protection (100%) from bite attempts) (Aedes albopictus [2]): 8.3 μg/cm^2; Protection time (95% protection) (Aedes albopictus [1]; dose of 0.17 mg/cm^2, tests ended after 8 h): 7 h
CCCCCCCC1OCC(C)(CO)CO1 (mixture of isomers) [9b]	97.02	98.5		98.35	100	97.67	93.8	96.63	91.73	420 (5.6) min	120 ± 105	
CCCCC(CC)C1OCC(CO)O1 (mixture of isomers) [10a]	100	100	100	100	100	97.5	100	63.17		360 (56.8) min		
CCCCCC1(CC)OCC(CO)O1 (mixture of isomers) [11a]	100	100	100	100	98.12	93.19	72.96			240 (3.8) min	345 ± 66	
CCCCCCCCC1OCC(CO)O1 (mixture of isomers) [13a]	99.47	100	100	99.41	100	97.22	99.06	96.82	82.75	420 (4.7) min	270 ± 77	
CCCCCCCCCC1OCC(CO)O1 (mixture of isomers) [18a]	100	97.63	100	98.31	99.28	99.23	97.68	92.86	95.18	420 (2.1) min	190 ± 50	Protection efficacy PE% (Aedes albopictus [2]; 0.081 µg/cm2): 22.98%; Protection efficacy PE% (Aedes albopictus [2]; 0.17 µg/cm2): 41.74%; Protection efficacy PE% (Aedes albopictus [2]; 0.33 µg/cm2): 40.93%; Protection efficacy PE% (Aedes albopictus [2]; 0.5 µg/cm2): 77.98%; Protection efficacy PE% (Aedes albopictus [2]; 0.83 µg/cm2): 69.25%; Protection efficacy PE% (Aedes albopictus [2]; 1.7 µg/cm2): 87.67%; Protection efficacy PE% (Aedes albopictus [2]; 8.3 µg/cm2): 95.83%; Protection efficacy PE% (Aedes albopictus [2]; 16.7 µg/cm2): 100%; Protection efficacy PE% (Aedes albopictus [2]; 83.3 µg/cm2): 100%; Protection efficacy (dose to obtain complete protection (100%) from bite attempts) (Aedes albopictus [2]): 16.7 μg/cm^2
CC(C)(C)C1CCC2(CC1)OCC(CO)O2 (mixture of isomers) [19a]										0 min		
CC1(CCc2ccccc2)OCC(CO)O1 (mixture of isomers) [20a]										0 min		
